Experimental data reported in publication PMC7140427, “A Unique GSK-3β inhibitor B10 Has a Direct Effect on Aβ, Targets Tau and Metal Dyshomeostasis, and Promotes Neuronal Neurite Outgrowth” (Cells, 2020).

Target: T1, GSK-3β (Homo sapiens, UniProt P49841)
T1 construct: gene GSK3B
Test: caliper mobility shift kinase assay with peptide FAM-P15 and ATP
Format: biochemical

T1 sequence (P49841 whole entry): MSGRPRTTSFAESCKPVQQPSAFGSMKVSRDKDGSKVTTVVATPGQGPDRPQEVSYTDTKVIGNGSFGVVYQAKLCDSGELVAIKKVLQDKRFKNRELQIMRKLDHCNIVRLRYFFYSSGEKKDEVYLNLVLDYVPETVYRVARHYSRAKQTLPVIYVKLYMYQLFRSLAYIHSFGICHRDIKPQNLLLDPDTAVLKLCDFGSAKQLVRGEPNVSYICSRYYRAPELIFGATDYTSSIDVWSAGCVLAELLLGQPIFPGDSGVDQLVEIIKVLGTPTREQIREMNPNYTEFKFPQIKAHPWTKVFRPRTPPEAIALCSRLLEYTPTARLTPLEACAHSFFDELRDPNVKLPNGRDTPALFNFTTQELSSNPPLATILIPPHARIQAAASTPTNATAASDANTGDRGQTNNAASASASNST

For `Oc1cc(-c2c[nH]c3ncc(-c4ccc(CNc5ccncc5)cc4)cc23)cc2cccnc12` [B10, 6-(5-(4-((pyridin-4-ylamino)methyl)phenyl)-1H-pyrrolo[2,3-b]pyridin-3-yl)quinolin-8-ol], which IC50 is on record?
Its IC50 is 66 ± 2.5 nM.
